Assay results as given in patent publication US20240024346A1, “CD73 INHIBITORS AND PHARMACEUTICAL USES THEREOF” (RISEN (SUZHOU) PHARMA TECH CO., LTD., priority 2020, published 2024).
Where two headings read alike, the source gives them in different places.

Columns and labels:
[1] = Pharmacokinetic evaluation in ICR mice after intravenous injection; assay type: in vivo; conditions: mouse; ICR male mice, 1.0 mg/kg intravenous, plasma
Experimental: A test compound (1.0 mg/kg) was administered to fasted ICR male mice via intravenous injection, and blood samples were collected at time points of 0.08, 0.25, 0.5, 1, 2, 4, 6, 8 and 24 h after the administration. Plasma sample was separated by centrifugation (8000 rpm) and stored at −80° C. until the sample was analyzed. Concentrations of the test compound in the plasma were determined by HPLC-MS/MS: the plasma was dispensed into appropriate tubes containing internal standard and methanol or acetonitrile. The tubes were mixed vigorously for 3 minutes to achieve deproteinization and then centrifuged at 8000 rpm for 5 minutes. The supernatant was transferred to an autosampler vial, injected into the chromatographic system, and quantified on MS/MS detector. Pharmacokinetic parameters including AUC0-4, Cmax, Tmax, t1/2, MRT, Cl and Vd were calculated using WinNonlin 6.3 software. Table 3 summarizes key PK parameters for test compounds (AUC(0-t): the area under the curve from time 0 to time t; AUC(0-∞): the area under the curve from time 0 to infinity; t1/2: Half-life; CL: clearance; C0: the concentration of drug in blood if the drug molecules enter the circulation and are distributed immediately (i.e., at time 0)).

[2] = target: T1, Recombinant human 5′-nucleotidase (hCD73) (Homo sapiens, UniProt P21589); experiment: CD73 enzyme inhibition assay (recombinant hCD73, AMP substrate, phosphate detection); assay type: biochemical; conditions: 37° C. 20 min, absorbance 635 nm
T1 sequence (P21589 27-549): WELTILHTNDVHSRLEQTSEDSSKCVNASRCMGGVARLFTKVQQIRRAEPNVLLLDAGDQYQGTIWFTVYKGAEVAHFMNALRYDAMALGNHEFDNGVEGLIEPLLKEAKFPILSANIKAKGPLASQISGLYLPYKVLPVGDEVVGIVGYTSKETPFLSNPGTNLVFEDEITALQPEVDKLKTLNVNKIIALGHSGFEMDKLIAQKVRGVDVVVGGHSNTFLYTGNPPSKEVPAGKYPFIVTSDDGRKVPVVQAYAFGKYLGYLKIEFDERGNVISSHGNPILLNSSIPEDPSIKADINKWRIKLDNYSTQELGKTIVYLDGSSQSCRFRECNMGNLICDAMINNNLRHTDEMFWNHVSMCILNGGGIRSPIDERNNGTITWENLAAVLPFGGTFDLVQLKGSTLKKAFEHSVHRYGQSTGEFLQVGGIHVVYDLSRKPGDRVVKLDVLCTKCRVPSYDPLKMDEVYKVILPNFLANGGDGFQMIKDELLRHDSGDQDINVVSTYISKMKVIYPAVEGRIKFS
Experimental: Test compound solution preparation: Stock solution of a test compound was prepared in DMSO at 10 mM concentration. A series of preset 10-concentration solutions of a test compound were prepared by diluting the stock solution in 5-fold gradient dilution with DMSO.
Assay buffer (1×): […] Tris, 25 mM NaCl, 1 mM MgCl2, pH 7.5, 0.005% Tween-20 (freshly prepared, and ready for use).
An aliquot of 0.25 μL of compound solution or DMSO (blank control) was added to each test well of a micro well plate. Recombinant human 5′-nucleotidase (hCD73) was diluted to 1 nM in assay buffer; and an aliquot of 25 μL hCD73 (1 nM) solution was added to the corresponding wells of the plate. The contents of the well were well-mixed, and the plate was covered with sealing film, centrifuged at 1000 rpm for 30 sec., followed by incubation at room temperature for 15 min. AMP, the substrate, was diluted to 60 μM concentration in the assay buffer. To each reaction well was added 25 μL of AMP solution. After mixing well, the plate was covered with sealing film, centrifuged at 1000 rpm for 30 sec., and incubated at 37° C. for 20 min. The absorbance signal (end point) was measured on SPARK plate reader at 635 nm (See PiColorLock™ Gold Phosphate Detection System (Abcam) test kit for reference).
The reaction wells containing CD73 enzyme, substrate AMP and DMSO (no compound) were used as positive control, and the reaction wells containing substrate AMP and DMSO but no CD73 enzyme were used as negative control. The percent (%) inhibition at each concentration of compound was calculated based on and relative to the signal in the High and Low control wells contained within each assay plate. The High control wells were considered as 0% inhibition, and the low control wells, which didn't contain any compound but rather DMSO (final concentration=0.5%), as 100% inhibition. IC50 values were obtained using GraphPad Prism software.

[3] = test system: human T cell; experiment: CD73 cellular assay (T cell stimulation assay: CellTiter-Glo proliferation and IFN-γ ELISA); assay type: cell-based; conditions: human T cells, anti-CD3/CD28, AMP + EHNA, 72 hours
Experimental: Day 2, human T cell seeding: (a) washing the coated plate (from Day 1) with sterilized PBS buffer (2×100 uL); (b) re-suspending T cells and adjusting cell density to 0.5×10^6 cells/mL with growth media (X-VIVO 15+1% Pen/strep+1% glutamine), and seeding 100 μL/well (50,000 cells/well) in 96-well plates; (c) diluting CD28 antibody for 8× working concentration (8 μg/mL) with growth media, giving 1 μg/mL of the final concentration, followed by addition of CD28 antibody (25 μL) to cell plate; incubating the plates under 5% CO2 at 37° C. for 60 min; (d) adding compound (25 μL, 8×dilution with growth media) to cell plate, and incubating the plates under 5% CO2 at 37° C. for 60 min; (e) adding AMP (25 μL) and EHNA (25 μL, 8×dilution with growth media) to cell plate; (f) incubating the plates under 5% CO2 at 37° C. for 72 hours.
Day 5, collecting cell growth media and testing cell proliferation: (a) centrifuging the cell plate (1,000 rpm) for 5 min; (b) harvesting 150 μL of the cell culture media from each well to 96 well plate, followed by measurement of IFN-r expression by ELISA test; (c) taking a portion of the cell culture supernatant for cytokine analysis, removing the remaining supernatant, followed by addition of fresh growth media (X-VIVO 15+1% Pen/strep+1% glutamine, 100 μL); (d) adding Celltiter-Glo solution (50 μL) into each well for the measurement of cell proliferation by: (e) incubating the plates at room temperature for 10 min on a shaker; (f) transferring 100 μL solution into 96-well white plate and taking the readout of the Celltiter-Glo data using a TECAN Reader.

[4] = read-out: EC50 CTG (CellTiter-Glo, cell proliferation)
[5] = read-out: EC50 IFN-γ (ELISA, indicator for T-cell activity)

clearance [1] [mL/min/kg]	IC50 [2] [nM]	Compound	EC50 [3, 4] [nM]	EC50 [3, 5] [nM]
2.65	0.47	O=P(O)(O)CP(=O)(O)OC[C@H]1O[C@@H](n2cnc3c(N4CC5(CCc6ccccc65)C4)nc(Cl)nc32)[C@@H](O)C1O (stereo partly drawn) [d-1]	3.13	1.45
1.85	1.08	O=P(O)(O)CP(=O)(O)OC[C@H]1O[C@@H](n2cnc3c(N4CCC5(CCCCC5)C4)nc(Cl)nc32)[C@@H](O)C1O (some centres unmarked) [Compound b, reference compound]	7.53	14.2
